Measurements as given in ChEMBL document CHEMBL1151017, “The synthesis of N-aryl androsterone pyrazoles as aromatase inhibitors” (Bioorg Med Chem Lett, 1997).

target: T1, Aromatase (Homo sapiens, UniProt P11511); assay: Inhibition of aromatase cytochrome P450 from human placental microsomes; 800-1000
T1 sequence (P11511 whole entry): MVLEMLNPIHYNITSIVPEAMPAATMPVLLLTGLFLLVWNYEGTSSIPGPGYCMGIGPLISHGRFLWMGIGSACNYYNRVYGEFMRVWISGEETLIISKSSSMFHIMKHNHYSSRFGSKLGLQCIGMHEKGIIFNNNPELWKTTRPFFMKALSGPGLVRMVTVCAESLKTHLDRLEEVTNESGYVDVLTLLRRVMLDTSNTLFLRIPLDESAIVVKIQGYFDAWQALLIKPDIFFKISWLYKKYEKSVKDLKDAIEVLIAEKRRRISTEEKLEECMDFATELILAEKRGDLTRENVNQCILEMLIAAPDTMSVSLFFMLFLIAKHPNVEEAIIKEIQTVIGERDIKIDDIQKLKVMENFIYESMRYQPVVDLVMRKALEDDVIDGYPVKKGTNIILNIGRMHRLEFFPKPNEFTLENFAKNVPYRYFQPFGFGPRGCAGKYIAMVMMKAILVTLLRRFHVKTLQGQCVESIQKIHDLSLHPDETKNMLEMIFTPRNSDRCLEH

Q: `CC12CCC3C(Cc4nn(C/C=C/c5ccccc5)c5c4C3(C)CCC5=O)C1CCC2=O` (configuration not stated) was tested. Which IC50 did it give?
A: Its IC50 is 0.8 µM.

target: T1, Aromatase; assay: Inhibition of cytochrome P450 19A1 aromatase from human placental microsomes

Q: `CC12CCC3C(Cc4c5c(nn4Cc4ccc([N+](=O)[O-])cc4)C(=O)CCC53C)C1CCC2=O` (configuration not stated) was tested. Which IC50 did it give?
A: The IC50 was 0.49 µM.

Q: How did the IC50 turn out when `CC12CCC3C(Cc4c5c(nn4Cc4ccccc4)C(=O)CCC53C)C1CCC2=O` (configuration not stated) was run?
A: Its IC50 is 0.245 µM.

Q: How did the IC50 turn out when `CC12CCC3C(Cc4[nH]nc5c4C3(C)CCC5=O)C1CCC2=O` (configuration not stated) was run?
A: Its IC50 is 0.236 µM.

Q: How did the IC50 turn out when `CC12CCC3C(Cc4nn(Cc5ccccc5)c5c4C3(C)CCC5=O)C1CCC2=O` (configuration not stated) was run?
A: Its IC50 is 0.342 µM.

Q: With `CC12CCC3C(Cc4nn(Cc5ccc([N+](=O)[O-])cc5)c5c4C3(C)CCC5=O)C1CCC2=O` (configuration not stated) as the compound, how does the IC50 read?
A: Its IC50 is 0.658 µM.

Q: Which IC50 does the source give for `CC12CCC3C(Cc4c5c(nn4C/C=C/c4ccccc4)C(=O)CCC53C)C1CCC2=O` (configuration not stated) here?
A: The IC50 was 0.95 µM.
